In patent US12441726B2, “Compounds and uses thereof” (Foghorn Therapeutics Inc., priority 2020, dated 2025):

Experiments:
BRG-1 = BRG-1 (Homo sapiens, UniProt P51532); assay: ATPase catalytic activity assay (ADP-Glo), BRG-1; conditions: for Emax: 1 h, read-out: BRG1 Max % Inhibition, ADP-Glo, 30 nM BRG-1, 400 μM ATP
BRM = BRM (Homo sapiens, UniProt P51531); assay: ATPase catalytic activity assay (ADP-Glo), BRM; conditions: 30 nM BRM, 400 μM ATP; for IC50: BRM ATPase: IC50 (uM)
BRM, sequence (P51531 whole entry): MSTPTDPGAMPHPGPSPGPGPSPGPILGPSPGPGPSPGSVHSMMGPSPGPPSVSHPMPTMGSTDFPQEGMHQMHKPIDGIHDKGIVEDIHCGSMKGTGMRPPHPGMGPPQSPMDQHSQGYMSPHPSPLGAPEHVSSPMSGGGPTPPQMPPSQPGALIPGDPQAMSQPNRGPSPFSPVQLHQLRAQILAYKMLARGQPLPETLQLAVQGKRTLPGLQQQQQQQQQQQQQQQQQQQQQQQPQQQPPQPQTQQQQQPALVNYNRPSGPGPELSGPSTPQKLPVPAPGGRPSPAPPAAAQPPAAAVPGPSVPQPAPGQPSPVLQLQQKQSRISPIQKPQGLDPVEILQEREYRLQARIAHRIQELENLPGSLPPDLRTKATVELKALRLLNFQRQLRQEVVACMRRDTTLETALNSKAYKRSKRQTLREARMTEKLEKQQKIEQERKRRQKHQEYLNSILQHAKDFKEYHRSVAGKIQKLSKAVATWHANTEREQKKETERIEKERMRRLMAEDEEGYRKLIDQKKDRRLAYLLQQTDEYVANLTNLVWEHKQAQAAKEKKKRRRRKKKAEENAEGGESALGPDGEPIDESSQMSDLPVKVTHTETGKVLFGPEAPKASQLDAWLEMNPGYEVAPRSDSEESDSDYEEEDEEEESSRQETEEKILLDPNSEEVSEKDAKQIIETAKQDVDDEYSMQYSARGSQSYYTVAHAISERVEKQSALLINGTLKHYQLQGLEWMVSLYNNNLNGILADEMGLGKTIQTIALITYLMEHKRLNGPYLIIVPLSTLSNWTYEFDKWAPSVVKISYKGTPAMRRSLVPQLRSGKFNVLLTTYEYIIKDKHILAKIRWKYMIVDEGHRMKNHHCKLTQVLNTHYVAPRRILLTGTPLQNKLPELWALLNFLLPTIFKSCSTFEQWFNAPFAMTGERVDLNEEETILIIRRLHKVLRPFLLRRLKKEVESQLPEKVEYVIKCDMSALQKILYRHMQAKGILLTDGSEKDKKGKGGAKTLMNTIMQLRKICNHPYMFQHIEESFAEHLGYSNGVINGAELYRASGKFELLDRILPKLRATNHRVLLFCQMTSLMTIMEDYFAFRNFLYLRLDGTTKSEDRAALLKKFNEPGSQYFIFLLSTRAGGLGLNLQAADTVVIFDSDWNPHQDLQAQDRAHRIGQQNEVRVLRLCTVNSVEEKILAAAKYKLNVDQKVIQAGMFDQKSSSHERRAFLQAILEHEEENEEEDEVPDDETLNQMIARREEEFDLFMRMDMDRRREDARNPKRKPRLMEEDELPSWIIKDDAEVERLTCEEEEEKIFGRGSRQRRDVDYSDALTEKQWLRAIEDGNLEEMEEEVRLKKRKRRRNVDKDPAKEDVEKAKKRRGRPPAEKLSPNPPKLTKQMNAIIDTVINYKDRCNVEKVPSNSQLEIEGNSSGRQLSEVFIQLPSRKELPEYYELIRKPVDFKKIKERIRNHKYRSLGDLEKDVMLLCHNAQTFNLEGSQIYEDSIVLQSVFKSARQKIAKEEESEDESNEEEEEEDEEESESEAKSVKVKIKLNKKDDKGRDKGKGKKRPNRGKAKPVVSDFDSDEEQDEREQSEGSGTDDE

BRG-1, sequence (P51532 whole entry): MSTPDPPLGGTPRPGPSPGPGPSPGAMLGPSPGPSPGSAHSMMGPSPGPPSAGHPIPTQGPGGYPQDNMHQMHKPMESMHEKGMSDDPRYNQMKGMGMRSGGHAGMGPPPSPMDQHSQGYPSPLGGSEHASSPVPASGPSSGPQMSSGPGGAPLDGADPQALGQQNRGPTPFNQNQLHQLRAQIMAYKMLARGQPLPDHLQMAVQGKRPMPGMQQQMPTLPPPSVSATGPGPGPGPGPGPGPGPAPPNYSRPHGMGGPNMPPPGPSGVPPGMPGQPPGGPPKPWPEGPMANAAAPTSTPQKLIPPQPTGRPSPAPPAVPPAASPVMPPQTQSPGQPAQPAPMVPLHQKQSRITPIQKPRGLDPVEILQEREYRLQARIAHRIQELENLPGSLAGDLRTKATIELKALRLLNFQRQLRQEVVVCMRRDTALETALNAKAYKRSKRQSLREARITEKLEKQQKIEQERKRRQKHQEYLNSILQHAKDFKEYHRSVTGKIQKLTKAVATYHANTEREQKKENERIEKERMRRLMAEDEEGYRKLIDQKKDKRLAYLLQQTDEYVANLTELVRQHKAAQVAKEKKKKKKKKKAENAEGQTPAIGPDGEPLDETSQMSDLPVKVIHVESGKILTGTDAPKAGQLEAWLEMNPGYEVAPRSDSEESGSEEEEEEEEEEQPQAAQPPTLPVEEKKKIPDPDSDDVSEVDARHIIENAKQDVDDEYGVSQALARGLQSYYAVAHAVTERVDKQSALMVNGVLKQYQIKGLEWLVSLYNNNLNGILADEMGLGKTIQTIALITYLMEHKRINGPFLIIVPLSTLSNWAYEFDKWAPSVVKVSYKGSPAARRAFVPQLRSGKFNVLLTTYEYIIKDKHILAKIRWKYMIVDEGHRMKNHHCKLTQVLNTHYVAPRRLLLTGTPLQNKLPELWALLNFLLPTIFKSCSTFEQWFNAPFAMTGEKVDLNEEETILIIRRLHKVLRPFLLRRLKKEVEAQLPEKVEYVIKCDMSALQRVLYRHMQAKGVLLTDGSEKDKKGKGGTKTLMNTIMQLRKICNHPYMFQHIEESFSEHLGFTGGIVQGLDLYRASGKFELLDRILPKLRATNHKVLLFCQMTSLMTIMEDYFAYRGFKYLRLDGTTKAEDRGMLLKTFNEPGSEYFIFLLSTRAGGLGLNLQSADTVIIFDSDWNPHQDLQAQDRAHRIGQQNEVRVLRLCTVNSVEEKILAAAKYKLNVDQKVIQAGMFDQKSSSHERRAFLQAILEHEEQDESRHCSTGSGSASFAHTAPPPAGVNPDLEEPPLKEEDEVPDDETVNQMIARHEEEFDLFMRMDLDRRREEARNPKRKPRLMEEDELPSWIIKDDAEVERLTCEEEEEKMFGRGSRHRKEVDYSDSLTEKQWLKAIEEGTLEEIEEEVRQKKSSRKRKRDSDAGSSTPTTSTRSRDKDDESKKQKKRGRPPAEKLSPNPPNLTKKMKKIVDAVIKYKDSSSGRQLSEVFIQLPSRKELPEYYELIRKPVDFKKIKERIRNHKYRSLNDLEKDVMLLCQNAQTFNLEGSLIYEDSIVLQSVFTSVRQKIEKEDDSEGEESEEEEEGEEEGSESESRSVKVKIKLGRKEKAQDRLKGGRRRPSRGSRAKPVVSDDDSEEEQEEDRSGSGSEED

| IC50 (BRG-1) [nM] | Emax (BRG-1) [%] | BRM Max % Inhibition (BRM) [%] | IC50 (BRM) [µM] | SMILES |
| --- | --- | --- | --- | --- |
| 500 to 1000 | 66 | 93 | 0.1 to 0.5 | C[C@@]1(C#N)COCc2ccc(C(=O)NCc3cc4nc(-c5ccnc(C6CCOCC6)n5)ccc4cn3)cc21 [Compound 397] |
| 100 to 500 | 91 | 98 | < 0.1 | C[C@@]1(F)COCc2c(F)cc(C(=O)NCc3cc4nc(-c5cncc(N6CCC6)n5)ccc4cn3)cc21 [Compound 398] |
| 100 to 500 | 98 | 100 | < 0.1 | C[C@@]1(C#N)COCc2c(F)cc(C(=O)NCc3cc4nc(-c5cncc(N6CCC6)n5)ccc4cn3)cc21 [Compound 399] |
| 500 to 1000 | 68 | 96 | 0.1 to 0.5 | C[C@@]1(C#N)COCc2c(F)cc(C(=O)NCc3cc4nc(-c5ccccc5)ccc4cn3)cc21 [Compound 400] |
| 100 to 500 | 91 | 97 | < 0.1 | C[C@@]1(F)COCc2ccc(C(=O)NCc3cc4nc(-c5cncc(N6CCC6)n5)ccc4cn3)cc21 [Compound 401] |
| 500 to 1000 | 74 | 96 | < 0.1 | C[C@@]1(C#N)COCc2ccc(C(=O)NCc3cc4c(cn3)CCN(c3cccc(N5CCC5)n3)C4)cc21 [Compound 402] |
| 100 to 500 | 91 | 99 | < 0.1 | C[C@@]1(C#N)COCc2ccc(C(=O)NCc3cc4nc(-c5ccnc(N6CC7(COC7)C6)n5)ccc4cn3)cc21 [Compound 403] |
| 100 to 500 | 78 | 93 | 0.1 to 0.5 | C[C@@]1(C#N)COCc2ccc(C(=O)NCc3cc4nc(-c5cncc(N6CC(F)(F)C6)n5)ccc4cn3)cc21 [Compound 404] |
| 500 to 1000 | 55 | 85 | 0.1 to 0.5 | C[C@@]1(C#N)COCc2ccc(C(=O)NCc3cc4nc(-c5cnn6c5OCCC6)ccc4cn3)cc21 [Compound 405] |
| 100 to 500 | 93 | 100 | < 0.1 | C[C@@]1(C#N)COCc2ccc(C(=O)NCc3cc4nc(-c5cncc(C6CC6)n5)ccc4cn3)cc21 [Compound 406] |
| 100 to 500 | 97 | 99 | < 0.1 | CN(C)c1cncc(-c2ccc3cnc(CNC(=O)c4ccc5c(c4)[C@](C)(C#N)COC5)cc3n2)n1 [Compound 407] |
| 500 to 1000 | 65 | 91 | 0.1 to 0.5 | Cc1cncc(-c2ccc3cnc(CNC(=O)c4ccc5c(c4)[C@](C)(C#N)COC5)cc3n2)n1 [Compound 408] |
| 100 to 500 | 95 | 96 | < 0.1 | COC1CN(c2cncc(-c3ccc4cnc(CNC(=O)c5ccc6c(c5)[C@](C)(C#N)COC6)cc4n3)n2)C1 [Compound 409] |
| 500 to 1000 | 75 | 93 | 0.1 to 0.5 | CC(C)(O)c1cccc(-c2ccc3cnc(CNC(=O)c4ccc5c(c4)[C@](C)(C#N)COC5)cc3n2)n1 [Compound 410] |
| 500 to 1000 | 50 | 91 | 0.1 to 0.5 | C[C@@]1(C#N)COCc2ccc(C(=O)NCc3cc4nc(-n5cc(F)cn5)ccc4cn3)cc21 [Compound 411] |
| 100 to 500 | 98 | 99 | < 0.1 | C[C@@]1(C#N)COCc2ccc(C(=O)NCc3cc4nc(-c5ccnc(N6CCC6)c5F)ccc4cn3)cc21 [Compound 412] |
| 500 to 1000 | 51 | 92 | 0.1 to 0.5 | C[C@@]1(F)COCc2ncc(C(=O)NCc3cc4nc(-c5ccccc5)ccc4cn3)cc21 [Compound 413] |
